Substitutions are numbered along the chain they refer to. In names and notes the source's numbering stands. Like-named read-outs stand apart in the source and are kept apart here.
Legend:
[1] = biological target: T1, G21 (PCFT) (Homo sapiens, UniProt Q96NT5); assay: Inhibition of [3H]folic acid uptake into G21 cRNA-injected Xenopus oocytes; assay type: cell-based; settings: 20 μM nonlabeled compound, pH 5.5, 30 min
T1 construct: expressed in transfected cells; host or cells: Xenopus laevis oocytes injected with capped G21 cRNA (pSPT64, SP6)
T1 sequence (Q96NT5 1-459): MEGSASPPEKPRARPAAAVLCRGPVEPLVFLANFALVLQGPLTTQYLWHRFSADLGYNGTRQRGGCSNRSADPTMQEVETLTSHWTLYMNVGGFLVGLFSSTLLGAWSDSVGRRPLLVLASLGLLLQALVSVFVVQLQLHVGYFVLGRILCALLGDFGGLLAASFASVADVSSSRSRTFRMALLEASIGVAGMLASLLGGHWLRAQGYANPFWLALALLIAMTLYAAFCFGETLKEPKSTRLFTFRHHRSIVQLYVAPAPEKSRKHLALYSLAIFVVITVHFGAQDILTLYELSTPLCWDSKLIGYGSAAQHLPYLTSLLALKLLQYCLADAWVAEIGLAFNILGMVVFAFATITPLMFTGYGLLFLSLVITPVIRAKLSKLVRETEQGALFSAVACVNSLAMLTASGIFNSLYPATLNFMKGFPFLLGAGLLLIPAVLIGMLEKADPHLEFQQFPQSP
Method: Uptake studies in Xenopus oocytes. […] Radiotracer uptake was determined 3 or 4 days later. […] Uptake was halted by the addition of ice-cold MBS (pH 7.5). Oocytes were washed 10 times thereafter, and solubilized with 10% SDS for measurement of radioactivity. To collapse the pH gradient across the oocyte membrane, seven to 10 oocytes were incubated in MBS (pH 5.5) containing 0, 10, 20, 40, 60 μM FCCP for 20 min, and uptake of transport substrates assessed at pH 5.5.

[2] = biological target: T1, G21 (PCFT); assay: Uptake of tritiated folates in G21 cRNA-injected Xenopus oocytes; assay type: cell-based; settings: for G21-mediated transport activity: pH 7.5, 2 μM tritiated substrate, 30 min
Method: Uptake studies in Xenopus oocytes. Defolliculated Xenopus laevis oocytes were prepared as described (Jansen and Akabas, 2006) and injected with 50 nl of water or G21 cRNA (30 ng). Radiotracer uptake was determined 3 or 4 days later. Seven to 10 oocytes were incubated in 500 μl of Modified Barth's Solution (MBS, in mM, 88 NaCl, 2.4 NaHCO3, 2.5 Na pyruvate, 1 KCl, 0.82 MgSO4, 0.41 CaCl2, 0.3 Ca(NO3)2, 15 MES or HEPES) and uptake of tritiated folate substrates assessed at room temperature. Uptake was halted by the addition of ice-cold MBS (pH 7.5). Oocytes were washed 10 times thereafter, and solubilized with 10% SDS for measurement of radioactivity. To collapse the pH gradient across the oocyte membrane, seven to 10 oocytes were incubated in MBS (pH 5.5) containing 0, 10, 20, 40, 60 μM FCCP for 20 min, and uptake of transport substrates assessed at pH 5.5.

[3] = biological target: T1, G21 (PCFT); assay: Two-electrode voltage-clamp electrophysiology in G21 cRNA-injected Xenopus oocytes; assay type: cell-based; settings: for Km: read-out: electrophysiologically determined Km
Method: Electrophysiological analyses in Xenopus oocytes. Defolliculated oocytes were injected with 50 nl of water (control) or G21 cRNA (50 ng), and kept at 17° C. in horse serum medium (in mM, 82.5 NaCl, 2.5 KCl, 1 MgCl2, 2.3 CaCl2, 5 HEPES, 5% horse serum, pH 7.5). Electrophysiological recordings were conducted 3-7 days after cRNA injection in buffer (in mM, 90 NaCl, 1 KCl, 1 MgCl2, 1.8 CaCl2, 5 TRIS, 5 MES) as described previously (Jansen and Akabas, 2006). Oocyte holding potential was −80 mV for Km determination. For current-voltage (I-V) relationships, from a −60 mV holding potential step changes in membrane potential were applied for 2 s in 10 mV increments between −100 and 30 mV in the absence and presence of substrate.

[4] = biological target: rat jejunum brush border membranes; settings: read-out: Ki, competitive inhibition of folic acid uptake; cited from earlier work
[5] = tested on: PCFT; assay: [3H](6S)5-methylTHF uptake in HeLa cells transiently transfected with mutated PCFT cDNA; assay type: cell-based, human; settings: pH 5.5, 37° C., 2 min; for residual transport activity as compared to the wild-type transporter: 0.5 μM [3H](6S)5-methylTHF, mock background subtracted; for [3H](6S)5-methylTHF uptake (transport function): 0.5 μM, transiently transfected HeLa cells
Description: Analysis of G21 in a family with hereditary folate malabsorption. Members of a family with hereditary folate malabsorption were studied according to a protocol and Informed Consent in the subjects' native language approved by the Albert Einstein College of Medicine IRB (CCI#2006-279). Whole blood was used for isolation of genomic DNA by a Genomic DNA Purification Kit (Gentra Systems, Minneapolis, Minn.) and to generate EBV-transformed human B-lymphoblastoid cell lines in the Einstein Human Genetics Cell Culture Core. Each G21 exon with flanking regions was amplified using Taq DNA polymerase, Q-solution (Qiagen, Valencia, Calif.) and primers listed in Table 4. G21 or RFC cDNA were amplified from lymphoblastoid cells by RT-PCR. PCR products were gel-purified and sequenced in an ABI 3730 DNA Analyzer (Applied Biosystems). The mutated region was verified by sequencing both DNA strands. An expression vector of the mutated G21 in which exon 3 was skipped (GenBank accession number: BC010691) was purchased from Open Biosystems and, along with pcDNA3.1(+)G21 (wild type), was used for an assay of transport function. Western blot analysis on whole cell lysate and cellular localization was performed as described above.
Site-directed mutagenesis. PCFT cDNA was cloned in pCDNA 3.1 (+) and mutations in the coding region were introduced by site-directed mutagenesis using PfuTurbo® DNA polymerase (Stratagene, La Jolla, Calif.) as described previously (Zhao et al., 2000). The entire PCFT coding region in the plasmid was sequenced to verify the presence of the mutation.
Transient transfections and assessment of 5-methylTHF transport. Plasmid concentrations were determined by UV absorption and verified by agarose gel analysis. HeLa cells were seeded and transiently transfected in 20 ml glass scintillation vials (Research Products International Corp., Mt. Prospect, Ill.) and after two days, [^3H]5-methylTHF uptake was assessed (Qiu et al., 2006). EBV-transformed B-lymphoblastoid cells, generated from blood (P6 and P7), were washed twice with, and resuspended in, unbuffered saline (160 mM NaCl, 5 mM KCl, 2 mM MgCl2, 5 mM glucose). Uptake was initiated by injection of the cell suspension into MES-buffered saline (pH 5.5) containing 0.5 μM [^3H]5-methylTHF. Surface binding was assessed by measuring [^3H]5-methylTHF associated with cells at 0° C. and the bound component was subtracted from total uptake.

[6] = changing the pH from 5.5 to 6.5
[7] = increasing the pH from 6.5 to 7.5
[8] = 10 μM FCCP, 20 min pre-incubation, extracellular pH 5.5, 2 μM substrate

In the case of `C[C@]12CC[C@@H]3c4ccc(OS(=O)(=O)O)cc4CC[C@H]3[C@@H]1CCC2=O` [estrone-3-sulfate], the “inhibitory effect on uptake of 2 μM [3H]folic acid” value (from here on “inhibitory effect on uptake of 2 μM”) [1] is reported as “did not inhibit”.

For `CN1c2c(nc(N)[nH]c2=O)NC[C@@H]1CNc1ccc(C(=O)N[C@@H](CCC(=O)O)C(=O)O)cc1` [(6S)5-MTHF, (6S)5-methyltetrahydrofolate], the “inhibitory effect on uptake of 2 μM” value [1] was “comparable to those of (6S)5-FTHF”, the G21-mediated transport activity [2] was “residual activity” and the “shift of reversal potential” value [3, 6] was −6 mV. The “shift of reversal potential” value [3, 7] was −30 mV, the Km ([3]; pH 5.5, holding potential −80 mV) was 0.53 ± 0.04 µM and the Km ([3]; pH 6.5, holding potential −80 mV) was 0.78 ± 0.14 µM.

In the case of `C[C@H](CCC(=O)O)[C@H]1CC[C@H]2[C@@H]3[C@H](O)C[C@@H]4C[C@H](O)CC[C@]4(C)[C@H]3C[C@H](O)[C@]12C` [cholic acid], the “inhibitory effect on uptake of 2 μM” value [1] is reported as “did not inhibit”.

For `CN1c2c(nc(N)[nH]c2=O)NCC1CNc1ccc(C(=O)N[C@@H](CCC(=O)O)C(=O)O)cc1` (mixture of isomers) [racemic 5-MTHF], the Ki [4] is listed as 1400 nM.

In the case of `Nc1nc2[nH]cc(CCc3ccc(C(=O)N[C@@H](CCC(=O)O)C(=O)O)cc3)c2c(=O)[nH]1` [pemetrexed], the “inhibitory effect on uptake of 2 μM” value [1] is reported as “most potent competitor”.

In the case of `N#CC(C#N)=NNc1ccc(OC(F)(F)F)cc1` [FCCP, carbonyl cyanide 4-(trifluoromethoxy) phenylhydrazone], the “effect on [3H]MTX uptake” value [2, 8] is reported as “markedly decreased” and the “effect on [3H]folic acid uptake” value [2, 8] is reported as “markedly decreased”.

For `O=C1OC(c2ccc(O)c(S(=O)(=O)O)c2)(c2ccc(O)c(S(=O)(=O)O)c2)c2c(Br)c(Br)c(Br)c(Br)c21` [Bromosulphopthalein], the “inhibitory effect on uptake of 2 μM” value [1] was “did not inhibit”.

With `Nc1nc2c(c(=O)[nH]1)N(C=O)[C@@H](CNc1ccc(C(=O)N[C@@H](CCC(=O)O)C(=O)O)cc1)CN2` [(6S)5-FTHF, (6S)5-formyltetrahydrofolate] the “inhibitory effect on uptake of 2 μM” value [1] was “more potent than the unnatural 6R isomer” and the G21-mediated transport activity [2] was “residual activity”.

For `CN(Cc1cnc2nc(N)nc(N)c2n1)c1ccc(C(=O)N[C@@H](CCC(=O)O)C(=O)O)cc1` [MTX, methotrexate], the “inhibitory effect on uptake of 2 μM” value [1] was “less effective competitor than folic acid”, the “shift of reversal potential” value [3, 6] was −8 mV and the “shift of reversal potential” value [3, 7] was −36 mV. The “lowest concentration at which current was detected” value ([3]; pH 5.5, Vh −80 mV) was 0.1 µM and the “current amplitude larger than (6S)5-MTHF-induced current” value ([3]; saturating concentrations, same oocyte, pH 5.5) was 86±11%.

In the case of `Nc1ccc(C(=O)NCC(=O)O)cc1` [para-aminohippuric acid], the “inhibitory effect on uptake of 2 μM” value [1] is reported as “did not inhibit”.

In the case of `C[C@H](CCC(=O)NCCS(=O)(=O)O)[C@H]1CC[C@H]2[C@@H]3[C@H](O)C[C@@H]4C[C@H](O)CC[C@]4(C)[C@H]3C[C@H](O)[C@]12C` [taurocholic acid], the “inhibitory effect on uptake of 2 μM” value [1] is reported as “did not inhibit”.

B1: G147R: human PCFT mutant protein (protein, UniProt Q96NT5 1-459, looked up, variant G147R)
Proton-coupled folate …: T1 sequence (Q96NT5 1-459) with G147R
With B1 the “residual transport activity as compared to the wild-type transporter” value [5] was 7.0%.

B2: P425R: human PCFT mutant protein (protein, UniProt Q96NT5 1-459, looked up, variant P425R)
Proton-coupled folate …: T1 sequence (Q96NT5 1-459) with P425R
In the case of B2, the “residual transport activity as compared to the wild-type transporter” value [5] is reported as 3.4%.

B3: R113S: human PCFT mutant protein (protein, UniProt Q96NT5 1-459, looked up, variant R113S)
Proton-coupled folate …: T1 sequence (Q96NT5 1-459) with R113S
With B3 the “[3H](6S)5-methylTHF uptake (transport function)” value (from here on “[3H](6S)5-methylTHF uptake”) [5] was “essentially no uptake”.

B4: S318R: human PCFT mutant protein (protein, UniProt Q96NT5 1-459, looked up, variant S318R)
Proton-coupled folate …: T1 sequence (Q96NT5 1-459) with S318R
In the case of B4, the “[3H](6S)5-methylTHF uptake” value [5] is reported as “essentially no uptake”.

B5: mutated G21 carrier: exon 3-deleted G21 (PCFT) protein, in-frame deletion of 28 amino acids (protein, listed as Homo sapiens)
chain: MEGSASPPEKPRARPAAAVLCRGPVEPLVFLANFALVLQGPLTTQYLWHRFSADLGYNGTRQRGGCSNRSADPTMQEVETLTSHWTLYMNVGGFLVGLFSSTLLGAWSDSVGRRPLLVLASLGLLLQALVSVFVVQLQLHVGYFVLGRILCALLGDFGGLLAASFASVADVSSSRSRTFRMALLEASIGVAGMLASLLGGHWLRAQGYANPFWLALALLIAMTLYAAFCFGETLKEPKSTRLFTFRHHRSIVQLYVAPAPEKSRKHLALYSLAIFVVITVHFGAQDILTLYELSTPLCWDSKLIGYGSAAQHLPYLTSLLALKLLQYCLADAWVAEIGLAFNILGMVVFAFATITPLMFTGALFSAVACVNSLAMLTASGIFNSLYPATLNFMKGFPFLLGAGLLLIPAVLIGMLEKADPHLEFQQFPQSP
With B5 the “[3H](6S)5-methylTHF uptake” value [5] was “lacked transport function”.
